Test results reported in US4824669A, “Formulations of coenzyme Q10 for intravenous use” (Board of Regents, The University of Texas System, priority 1987, dated 1989).
Where two headings read alike, the source gives them in different places.

How the values were obtained:
[1] = visible separation / stability of CoQ10 in commercial fat emulsions; format: physicochemical
Experimental: A preferred technique of preparing formulations of the present invention involved adding 1 ml of a fat emulsion such as Intralipid, Liposyn, Soyacal, and Travemulsion to each of three tubes. With a microsyringe, 1 μl of soybean oil containing 30 μg, 15 μg and 7.5 μg of CoQ10, respectively, was added to each of the three tubes containing 1 ml the fat emulsion. The microliter of soybean oil containing these three amounts of CoQ10 was easily visible by the yellow color on the surface of the fat emulsion. The contents of these tubes were cooled to less than about 5° C. and were then sonicated for about 5 seconds in an ice bath. The sonicated CoQ10 -fat emulsion was then drawn into a first syringe through the syringe needle. The needle of the first syringe was then connected to the needle of a second syringe. The CoQ10 -fat emulsion was then passed back and forth through the needles from the first syringe to the second syringe, and this mixing was repeated about 10 times. The needles of the two syringes were connected through a rubber stopper or a tubing, which sufficed for this laboratory scale preparation.

[2] = clinical use; cited from earlier work
[3] = blood CoQ10 levels expected after intravenous administration of CoQ10-fat emulsions; format: in vivo, human; conditions: i.v., control 5 mg
Experimental: The intravenous formulations of the present invention may be used, for example, to introduce 15 mg, 10 mg and 5 mg of CoQ10 into the total body blood volume by intravenous administration of about 500 ml containing 30 μg/ml, 15 μg/ml and 7.5 μg/ml, respectively, of CoQ10. On the basis that the control blood level of CoQ10 /total body volume is 5 mg, then the total body volume would contain 20 mg, 15 mg, and 10 mg, respectively, after the intravenous administration of the three formulations.
These three particular exemplary formulations of the present invention will allow the introduction of CoQ10 into the blood of patients to levels of 2, 3 and 4 μg/ml, respectively, for a total amount of CoQ10 /total body volume of blood of, for example, about 10, 15 and 20 mg, respectively.

[4] = oral, cited from earlier work; for absorption (in words): human subjects
[5] = oral, coronary artery by-pass graft surgery; Sunamori et al.; cited from earlier work
[6] = soybean oil in soft gelatin capsules; cited from earlier work
[7] = 100 mg daily (3 capsules of 33.3 mg in soybean oil), patients; cited from earlier work
[8] = blood levels on daily oral administration of CoQ10 capsules to patients; format: in vivo, human; conditions: if a blood level of 3 μg/ml of whole blood is achieved on oral therapy
Experimental: It is known from the existing clinical data from the daily oral administration of 100 mg of CoQ10 to patients (3 capsules of 33.3 mg each in soybean oil), that blood levels in the range of about 2-4 μg/ml whole blood may be achieved. These blood levels on daily oral administration of 3 capsules vary between about 1.5 and 4 μg/ml whole blood, depending upon the initial control level, the variation of oral absorption, patient compliance, etc. If a blood level of 3 μg/ml of whole blood is achieved on therapy, the amount of CoQ10 in the total blood volume would be about 15 mg. The gastrointestinal absorption of CoQ10 from 3 capsules/day is about 15% or 15-20% according to Lucker et al. (citation under Background of the Invention). However, as mentioned earlier herein, oral administration of CoQ10 is undependable and sometimes difficult.

[9] = solid particle dispersions in aqueous medium; cited from earlier work

separation of CoQ10 from the emulsion ([1]; 30, 15 and 7.5 μg/ml of commercial fat emulsion, sonicated and passed through syringe needles): did not visibly separate to the surface | stability of emulsions at high CoQ10 level ([1]; CoQ10 levels above about 30 μg/ml): tend to be unstable | CoQ10 in total body blood volume after intravenous administration ([3]; about 500 ml containing 7.5 μg/ml): 10 mg | CoQ10 in total body blood volume after intravenous administration ([3]; about 500 ml containing 30 μg/ml): 20 mg | amount of CoQ10 in the total blood volume [8]: about 15 mg
Structure (SMILES): COC1=C(OC)C(=O)C(C/C=C(\C)CC/C=C(\C)CC/C=C(\C)CC/C=C(\C)CC/C=C(\C)CC/C=C(\C)CC/C=C(\C)CC/C=C(\C)CC/C=C(\C)CCC=C(C)C)=C(C)C1=O [CoQ10, 2,3-dimethoxy-5-methyl-6-decaprenyl benzoquinone]
stability of simple combination with commercial fat emulsion ([1]; simple combination of CoQ10 with one of the commercial fat emulsions): unstable formulations from which the CoQ10 would too readily separate | clinical safety record [2]: clinical record of safety of over a decade | absorption (in words) [4]: very slow absorption | absorption (in words) ([4]; listed as coenzyme Q10): slow and inefficient | overall absorption of orally administered CoQ10 ([4]; human, Lucker et al.): 10-20% | orally administered dose recovered from the feces ([4]; study period of 10 days): ≤ 62% | tissue concentrations of CoQ10 (in words) [5]: failed to allow satisfactory tissue concentrations of CoQ10 | stability in encapsulated soybean oil [6]: up to 6 years | blood levels on daily oral administration [7]: 2-4 μg/ml whole blood | settling on standing [9]: particles containing CoQ10 fall to the bottom of the container
